According to patent US9580399B2, “Geranyl flavonoid derivative with improved water solubility, a method for preparing the same, and a method for treating cancer using the same” (KOREA RESEARCH INSTITUTE OF BIOSCIENCE AND BIOTECHNOLOGY, priority 2014, dated 2017):
Converted amounts (≈) assume the structure as drawn.

What was measured:
[1] = Physicochemical properties: solubility; conditions: for Solubility: Insolubility: solvents in which insoluble; for Solubility: Fusibility: solvents in which soluble
[2] = tested on: Mcl-1; experiment: Western blotting of STAT3 target protein expression in DU-145 cells; assay type: cell-based, human; conditions: DU-145, 20 μM
Procedure: (§1) To investigate the changes of the expression of STAT3 target genes according to the decrease of STAT3 protein phosphorylation caused by the treatment of geranyl flavonoid derivative CG901-2, the expressions of cyclin A that is well known as a STAT3 target protein, Mcl-1 (Induced myeloid leukemia cell differentiation protein-1), and survivin were examined. Particularly, DU-145 cells were treated with the compound CG-901-2 at the concentration of 20 μM by the same manner as described in Example <2-1>, followed by culture. Western blotting was performed to investigate the expressions of AD (cyclin A), Mcl-1, and survivin. β-actin was used as the control to compare the expression levels.

[3] = tested on: cyclin A; experiment: as above; assay type: cell-based, human; conditions: DU-145, 20 μM
Procedure: as §1

[4] = tested on: survivin; experiment: as above; assay type: cell-based, human; conditions: DU-145, 20 μM
Procedure: as §1

[5] = molecular target: T1, STAT3 (Homo sapiens, UniProt P40763); experiment: Western blotting of STAT3 expression and phosphorylation in DU-145 cells; assay type: cell-based; conditions: DU-145, 5, 10 or 20 μM, 24 hours
T1 construct: the prostate cancer cell line DU-145 was distributed in three 60-mm plates; endogenous in cells; host or cells: DU-145 prostate cancer cells
T1 sequence (P40763 whole entry): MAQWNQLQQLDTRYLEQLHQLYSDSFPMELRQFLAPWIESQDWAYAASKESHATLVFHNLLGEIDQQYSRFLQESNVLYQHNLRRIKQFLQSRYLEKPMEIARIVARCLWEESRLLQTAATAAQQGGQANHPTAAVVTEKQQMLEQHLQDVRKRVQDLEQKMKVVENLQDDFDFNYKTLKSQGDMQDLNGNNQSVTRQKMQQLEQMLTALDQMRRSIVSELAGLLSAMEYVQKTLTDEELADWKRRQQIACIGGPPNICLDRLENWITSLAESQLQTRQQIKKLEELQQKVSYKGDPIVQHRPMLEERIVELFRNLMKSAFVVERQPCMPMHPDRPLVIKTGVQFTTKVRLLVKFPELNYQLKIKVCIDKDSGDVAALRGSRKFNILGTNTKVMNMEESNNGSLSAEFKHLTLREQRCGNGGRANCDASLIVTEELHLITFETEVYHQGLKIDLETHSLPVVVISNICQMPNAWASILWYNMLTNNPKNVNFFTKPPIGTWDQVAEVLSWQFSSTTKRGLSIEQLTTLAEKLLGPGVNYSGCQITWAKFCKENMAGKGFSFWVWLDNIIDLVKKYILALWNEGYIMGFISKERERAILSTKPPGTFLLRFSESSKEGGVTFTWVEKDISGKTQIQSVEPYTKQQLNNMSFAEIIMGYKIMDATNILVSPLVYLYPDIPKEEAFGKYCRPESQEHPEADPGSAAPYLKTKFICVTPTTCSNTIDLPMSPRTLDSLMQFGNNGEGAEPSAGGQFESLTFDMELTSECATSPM
Procedure: To investigate whether or not the novel synthesized geranyl flavonoid derivative of the present invention, CG-901-2, had the activity of inhibiting STAT3 protein activity by inhibiting STAT3 phosphorylation, Western blotting was performed to measure the expression of the phosphorylated STAT3. Particularly, the prostate cancer cell line DU-145 was distributed in three 60-mm plates containing 10% FBS (fetal bovine serum) medium at the density of 80,000 cells/plate, followed by culture in a 37° C. 5% CO2 incubator for 24 hours. Upon completion of the culture, the CG-901-2 compound prepared in Example <1-2> was treated to each plate at the concentration of 5, 10, or 20 μM. The negative control was treated with 0.25% DMSO, followed by culture for 24 hours. Then, the medium was discarded from each plate. The plate was then washed with PBS, to which 200 μl of Ripa lysis buffer was added. The cells attached on the plate were collected by using a scraper. […] The lysate mixture was placed in a 96-well plate, and […] was measured using ELISA reader in order to quantify the protein. After the quantification, the lysate containing the equal amount of protein was prepared, which was mixed with lysis buffer and 5× dye, leading to the preparation of a loading sample. […]

[6] = tested on: various human cancer cell lines; experiment: Cancer cell growth inhibition (WST-1), all cell lines together; assay type: cell-based
Procedure: To investigate whether or not the geranyl flavonoid derivative of the present invention had cancer cell growth inhibiting effect, various human cancer cell lines were treated with CG-901-2 and then cancer cell growth was observed. Particularly, the human breast cancer cell lines MDA-MB-231 and MDA-MB-468, the prostate cancer cell line DU-145, the colorectal cancer cell line HCT116, the pancreatic cancer cell line AsPC-3, or the colon cancer cell line SW620 was distributed in 10% FBS medium, followed by culture in a 37° C. 5% CO2 incubator. The attached grown cells were collected by using trypsin-EDTA. The obtained cells were counted by hematocytometer, which were distributed in 96-well plate at the density of 5,000 cells/well (MDA-MB-231, MDA-MB-468, and DU-145) or at the density of 7,000 cells/well (HCT116 and SW620). 10% FBS medium was added to the plate, followed by culture in a 37° C. 5% CO2 incubator. 24 hours later, the cells were treated with the compound CG-901-2 prepared in Example <1-2> dissolved in DMSO at the concentration of 20 or 50 μg/ml. The negative control was treated with 0.1% DMSO. The cells were further cultured for 24 more hours. […] Then, OD450 was measured with ELISA reader (Bio-Rad) to investigate the time-dependent cancer cell growth rate. […]

[7] = tested on: DU-145 tumor; experiment: In vivo tumor growth inhibition in prostate cancer mouse model; conditions: 50 mg/kg oral, once a day, 10 times, compared with negative control
Procedure: Particularly, the human originated prostate cancer cell line DU-145 was inoculated in the serum-free medium, followed by culture in a 37° C. 5% CO2 incubator. The cultured DU-145 cells were prepared at the density of 3×10^7 cells/ml. Each BALB/c specific pathogen free female mouse (Nara Biotech Co.) at 6 weeks was administered with the cells at the dose of 9×10^6 cells/0.3 ml via subcutaneous injection in the auxiliary region between the right shoulder and breast wall, leading to the cancer cell transplantation. After the transplantation, the mouse was raised for 25 days until the generated tumor induced by the transplanted cancer cells grew to a measurable size. As a result, the prostate cancer mouse model was constructed. The tumor induced by the transplanted cancer cells was measured in three dimensions which were length, width, and height of the tumor, by using a vernier caliper, […], and the size of the tumor was calculated by the below mathematical formula 1. […] The tumor size was measured on day 0, day 10, day 14, day 16, day 18, day 21, day 23, and day 25. […] The size and weight of the control tumor was measured and compared with the above.

[8] = tested on: HCT116; experiment: Cancer cell growth inhibition (WST-1); assay type: cell-based; conditions: Homo sapiens, HCT-116; Colorectal cancer, 24 hours
Procedure: (§2) To investigate whether or not the geranyl flavonoid derivative of the present invention had cancer cell growth inhibiting effect, various human cancer cell lines were treated with CG-901-2 and then cancer cell growth was observed. Particularly, the human breast cancer cell lines MDA-MB-231 and MDA-MB-468, the prostate cancer cell line DU-145, the colorectal cancer cell line HCT116, the pancreatic cancer cell line AsPC-3, or the colon cancer cell line SW620 was distributed in 10% FBS medium, followed by culture in a 37° C. 5% CO2 incubator. The attached grown cells were collected by using trypsin-EDTA. The obtained cells were counted by hematocytometer, which were distributed in 96-well plate at the density of 5,000 cells/well (MDA-MB-231, MDA-MB-468, and DU-145) or at the density of 7,000 cells/well (HCT116 and SW620). 10% FBS medium was added to the plate, followed by culture in a 37° C. 5% CO2 incubator. 24 hours later, the cells were treated with the compound CG-901-2 prepared in Example <1-2> dissolved in DMSO at the concentration of 20 or 50 μg/ml. The negative control was treated with 0.1% DMSO. The cells were further cultured for 24 more hours. Then, 10 μl of the coloring agent, 2-[4-iodophenyl]-3-[4-nitrophenyl]-5-[2,4-disulfophenyl]-2H-tetrazolium (monosodium salt, WST-1; Roche) was treated to the cultured cells, followed by culture for 2 hours. Then, OD450 was measured with ELISA reader (Bio-Rad) to investigate the time-dependent cancer cell growth rate. For 24 hours from the treatment of the compound, the concentration of the compound that allowed only 50% of cancer cell population to survive was calculated based on the above growth rate, and the result was defined as GI50.

[9] = tested on: SW620; experiment: Cancer cell growth inhibition (WST-1); assay type: cell-based; conditions: Homo sapiens, SW-620; Colon cancer, 24 hours
Procedure: as §2

[10] = tested on: MDA-MB-468; experiment: Cancer cell growth inhibition (WST-1); assay type: cell-based; conditions: Homo sapiens, Breast cancer, 24 hours
Procedure: as §2

[11] = Cancer cell growth inhibition (WST-1); assay type: cell-based; conditions: Homo sapiens; Prostate cancer, 24 hours
Procedure: as §2

Row | Solubility: Insolubility [1] | Solubility: Fusibility [1] | solubility ([1]; water) [µM] | expression of STAT3 [5] | phosphorylation of STAT3 [5] | GI50 ([6]; Homo sapiens, MDA-MB-231, MDA-MB-468, DU-145, HCT116, AsPC-3, SW620, read-out: GI50 concentration range of each cancer cell line) [µM] | GI50 [8] [µM] | GI50 [9] [µM] | GI50 [10] [µM] | GI50 [11] [µM] | SMILES | expression of Mcl-1 [2] | expression of cyclin A [3] | expression of survivin [4] | cancer cell growth rate ([6]; compared with negative control) | tumor size growth inhibited [7] | weight of the tumor reduced ([7]; day 25) [%]
1 | Hexane | Alcohol, DMSO | 300 (≈ 144 µg/mL) | – | – | – | – | – | – | – | CC(C)=CCC[C@]1(C)C=Cc2c(CCC(=O)c3ccc(OCCN(C)C)cc3O)ccc(O)c2O1 [CG-901-1, (R)-1-(4-(2-(dimethylamino)ethoxy)-2-hydroxyphenyl)-3-(8-hydroxy-2-methyl-2-(4-methylpent-3-enyl)-2H-chromen-5-yl)propan-1-one] | – | – | – | – | – | –
2 | Hexane, Ethylacetate | Alcohol, H2O | – | not changed | reduced CG-901-2 dose-dependently | 15 to 30 | 25 | 50 | 30 | 20 | CC(C)=CCC[C@]1(C)C=Cc2c(CCC(=O)c3ccc(OCCN(C)C)cc3O)ccc(O)c2O1.Cl [CG-901-2, (R)-2-(3-hydroxy-4-(3-(8-hydroxy-2-methyl-2-(4-methylpent-3-enyl)-2H-chromen-5-yl)propanoyl)phenoxy)-N,N-dimethylethanaminium chloride] | down-regulated | down-regulated | down-regulated | reduced over the time | approximately 38.8% | 40.5
